According to US20120016010A1, “RNA Interference Mediated Inhibition of BTB and CNC Homology 1, Basic Leucine Zipper Transcription Factor 1 (BACH1) Gene Expression Using Short Interfering Nucleic Acid (siNA)” (Merck Sharp & Dohme Corp, priority 2009, published 2012):

Columns and labels:
[1] = system: human GAPDH mRNA transcript; experiment: GAPDH specificity screen in human A549 cells; format: cell-based; conditions: Table 5; 1 nM siNA, STAT 4 as endogenous control, relative to universal control siNA
Method: To evaluate the expression level and % knock-down of GAPDH, STAT 4 gene was used as an endogenous control to calculate ΔCt for siNA treated samples and the universal control:
STAT 4 gene was selected as an internal normalizer based on its relatively consistent expression across 49 test samples in three independent experiments. ΔΔCt, Relative expression level and % KD were calculated as described above.
The specificity of these siNAs was also assessed. These siNAs were tested at a lower concentration (1 nM versus the original screening concentration of 10 nM) to determine the effect of the Bach1 siNAs on the mRNA transcript of human GAPDH.

Male CD rats = conditions: rat, in vivo, 10 mg/kg
Method: Male CD rats were anaesthetised and intra-tracheally dosed with 200 ul of either vehicle, Poly I:C (1 mg/kg) or siNA (10 mg/kg). 24 hours later the rats were euthanized and the lungs lavaged 3 times with 5 ml of heparinised PBS. Total and differential cell counts as well as cytokine analysis were performed on the lung lavage fluid.

Bach1 mRNA = experiment: Dose-response curve of Bach1 mRNA knock-down in human A549 cells; format: cell-based; conditions: three experiments, mean ± standard deviation; for IC50: Table 4, Bach1 mRNA knock-down; for Maximum % KD in DRC: Table 4, Bach1 mRNA, 12 concentrations 0.083 fM to 30 nM
Method: All calculations of IC50s were performed using SigmaPlot 10.0 software. The data were analyzed using the sigmoidal dose-response (variable slope) equation for simple ligand binding. In all of the calculations of the % knock-down, the calculation was made relative to the normalized level of expression of the gene of interest in the samples treated with the non-targeting control (Ctrl siNA) unless otherwise indicated. Summary data, as to potency and efficacy for Bach1 mRNA knock-down in human cells for certain siNA molecules, is presented in Table 4. Cells for the experiments were treated with 12 concentrations of siNA ranging from 0.083 fM to 30 nM. All of the data is presented as % knockdown of Bach1 normalized against the expression of GAPDH mRNA expression level. Then the data was determined as a % knockdown relative to the non-targeting control siNA.

| Substance | % KD GAPDH [1] | cytokine production (Male CD rats) | inflammatory cell (neutrophils and macrophages) influx (Male CD rats) | IC50 (Bach1 mRNA) | Maximum % KD in DRC (Bach1 mRNA) |
| --- | --- | --- | --- | --- | --- |
| 29947-DC (sense GGAAUCCUGCUUUCAGUUUTT; antisense AAACUGAAAGCAGGAUUCCUU; inverted abasic caps (B), 2'-modified nucleotides, further chemistry not given here) | −15 ± 29% | no significant increases | no significant increases | 0.027 ± 0.005 nM | 86 ± 0.5% |
| 29956-DC (sense GUCUGAGUGUCCGUGGUUATT; antisense UAACCACGGACACUCAGACUU; inverted abasic caps (B), 2'-modified nucleotides, further chemistry not given here) | −18 ± 15% | – | – | 0.028 ± 0.018 nM | 80 ± 7.7% |
| 29957-DC (sense GCAGUUACUUCCACUCAAGTT; antisense CUUGAGUGGAAGUAACUGCUU; inverted abasic end caps, TT overhangs, modified nucleotides, further chemistry not given here) | −10 ± 9% | – | – | 0.039 ± 0.013 nM | 87 ± 0.9% |
| 29961-DC (sense CUACACUGCUAAACUGAUUTT; antisense AAUCAGUUUAGCAGUGUAGUU; inverted abasic end caps, TT overhangs, modified nucleotides, further chemistry not given here) | 7 ± 7% | no significant increases | no significant increases | 0.01 ± 0.004 nM | 89 ± 2.2% |
| 29964-DC (sense GAUUUGCAGGUGAUGUUAATT; antisense UUAACAUCACCUGCAAAUCUU; inverted abasic end caps, TT overhangs, modified nucleotides, further chemistry not given here) | 14 ± 2% | no significant increases | no significant increases | 0.027 ± 0.015 nM | 87 ± 2.8% |
| 29988-DC (sense AUUUGAACCUUUAAUUCAGTT; antisense CUGAAUUAAAGGUUCAAAUUU; inverted abasic end caps, TT overhangs, modified nucleotides, further chemistry not given here) | 23 ± 5% | no significant increases | no significant increases | 0.063 ± 0.019 nM | 84 ± 0.9% |
